Reference: ChEMBL document CHEMBL1156893, “Structure-activity relationships amongst 4-position quinoline methanol antimalarials that inhibit the growth of drug sensitive and resistant strains of Plasmodium falciparum” (Bioorg Med Chem Lett, 2010)

System: Plasmodium berghei
Experiment: Antimalarial activity against Plasmodium berghei infected in ICR mice (Mus musculus) assessed as delay in mortality at 160 mg/kg, perorally for 3 days
Format: functional, organism-based
Set-up: dose 160 mg/kg

SMILES | survival time
COCCNCC(O)c1cc(C(F)(F)F)nc2c(C(F)(F)F)cccc12 (stereo not drawn) | 15 days
COCCCNCC(O)c1cc(C(F)(F)F)nc2c(C(F)(F)F)cccc12 (stereo not drawn) | 9 days
OC(c1cc(C(F)(F)F)nc2c(C(F)(F)F)cccc12)C1CCCCN1 (racemic) | 17 days
CSCCCNCC(O)c1cc(C(F)(F)F)nc2c(C(F)(F)F)cccc12 (stereo not drawn) | 17 days
CCCCNCC(O)c1cc(C(F)(F)F)nc2c(C(F)(F)F)cccc12 (stereo not drawn) | 8 days
CC(C)CC(C)NCC(O)c1cc(C(F)(F)F)nc2c(C(F)(F)F)cccc12 (stereo not drawn) | 2 days
CC1C(NCC(O)c2cc(C(F)(F)F)nc3c(C(F)(F)F)cccc23)CC2CC1C2(C)C (stereo not drawn) | 3 days
CNCC(O)c1cc(C(F)(F)F)nc2c(C(F)(F)F)cccc12 (stereo not drawn) | 25 days
